Reference: patent publication US20130045952A1, “ABA Receptor Agonists for Increased Plant Stress Resistance” (Van Andel Research Institute, priority 2011, published 2013)

Key:
Format in all cases: biochemical
His6-PYL3 / biotin-PP2C = biological target: T1, His6-PYL3 / biotin-PP2C (Arabidopsis thaliana, UniProt Q9SSM7); experiment: AlphaScreen luminescence proximity assay, PYL3-PP2C interaction; conditions: 100 nM His6-PYL3, 100 nM biotin-PP2C, 100 μM agonist; normalized against a pyrabactin control
T1 construct: made in house; host or cells: not expressly stated for PYL3
T1 sequence (Q9SSM7 1-209): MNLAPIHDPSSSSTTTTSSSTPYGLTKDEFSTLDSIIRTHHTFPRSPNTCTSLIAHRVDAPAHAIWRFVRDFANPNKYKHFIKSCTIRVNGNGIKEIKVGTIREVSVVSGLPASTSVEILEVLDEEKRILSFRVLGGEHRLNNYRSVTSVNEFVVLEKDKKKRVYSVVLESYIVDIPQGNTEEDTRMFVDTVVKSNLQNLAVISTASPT
Procedure: (§1) Mutant proteins were expressed as H6GST-fusion proteins and purified by glutathione sepharose chromatography. Protein-protein interactions were determined by luminescence proximity AlphaScreen assay. Biotinylated PP2C proteins for the luminescence proximity assay were generated by in vivo biotinylation of avitag-PP2C fusion proteins. PP2C phosphatase activity was measured by phosphate release from a SnRK2.6 phosphoprotein.
(§2) Interactions between PYR/PYL and PP2Cs were assessed by luminescence-proximity AlphaScreen technology (Perkin Elmer). Briefly, biotinylated PP2Cs were attached to streptavidin-coated donor beads, and H6-tagged PYR/PYL receptors were attached to nickel-chelated acceptor beads. The donor and acceptor beads were brought into proximity by the interactions between PYR/PYLs and PP2Cs, which were measured with and without ligands. When excited by a laser beam of 680 nm, the donor beam emits singlet oxygen that activates thioxene derivatives in the acceptor beads, which releases photons of 520-620 nm as the binding signal. The experiments were conducted with 100 nM of PP2Cs and PYR/PYL proteins in the presence of 5 ug/ml donor and acceptor beads in a buffer of 50 mM MOPS, pH7.4, 50 mM NaF, […], and 0.1 mg/ml bovine serum albumin. The results were based on an average of three experiments with standard errors typically less than 10% of the measurements.
(§3) Values were determined in different experiments and normalized against a pyrabactin control. Blank spaces mean no experimental data is available. Key (photon counts (binding signal units) in Alphascreen luminescence proximity assay): “+++ is >75,000; ++ is 25,000−75,000; + is <25,000.

His6-PYR1 / biotin-PP2C = biological target: T2, His6-PYR1 / biotin-PP2C (Arabidopsis thaliana, UniProt O49686); experiment: AlphaScreen luminescence proximity assay, PYR1-PP2C interaction; conditions: 100 nM His6-PYR1, 100 nM biotin-PP2C, 100 μM agonist; normalized against a pyrabactin control
T2 construct: made in house; host or cells: E. coli is stated for PYL1, PYL2 and the PP2Cs, not expressly for PYR1
T2 sequence (O49686 1-191): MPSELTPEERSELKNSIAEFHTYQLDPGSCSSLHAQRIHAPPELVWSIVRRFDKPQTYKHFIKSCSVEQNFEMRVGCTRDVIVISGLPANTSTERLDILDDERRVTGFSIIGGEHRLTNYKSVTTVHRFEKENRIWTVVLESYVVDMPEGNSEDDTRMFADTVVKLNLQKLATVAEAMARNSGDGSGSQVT
Procedure: as §1, §2, §3

His6-PYL2 / biotin-PP2C = biological target: T3, His6-PYL2 / biotin-PP2C (Arabidopsis thaliana, UniProt O80992); experiment: AlphaScreen luminescence proximity assay, PYL2-PP2C interaction; conditions: 100 nM His6-PYL2, 100 nM biotin-PP2C, 100 μM agonist; normalized against a pyrabactin control
T3 construct: PYL2 (residues 14-188), and HAB1 (residues 172-511) were prepared as recombinant proteins in E. coli; made in house; host or cells: E. coli
T3 sequence (O80992 14-188): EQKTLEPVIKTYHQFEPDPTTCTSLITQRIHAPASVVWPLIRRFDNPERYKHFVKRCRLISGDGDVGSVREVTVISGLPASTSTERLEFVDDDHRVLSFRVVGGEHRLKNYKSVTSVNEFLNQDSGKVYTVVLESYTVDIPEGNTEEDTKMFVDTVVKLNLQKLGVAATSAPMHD
Procedure: as §1, §2, §3

Row | Structure (SMILES) | Stimulation of the interaction between PYL3 and PP2C (binding signal) (His6-PYL3 / biotin-PP2C) | Stimulation of the interaction between PYR1 and PP2C (binding signal) (His6-PYR1 / biotin-PP2C) | Stimulation of the interaction between PYL2 and PP2C (binding signal) (His6-PYL2 / biotin-PP2C)
1 | O=S(=O)(NCc1ccccn1)c1ccc2ccccc2c1 [Compound 4] | + (+ is <25,000) | +++ (+++ is >75,000) | –
2 | CC1(C)CC(=O)C(/C=N/CCc2ccc(S(N)(=O)=O)cc2)=C(O)C1 [Compound 10] | + (+ is <25,000) | + (+ is <25,000) | + (+ is <25,000)
3 | O=C(CNS(=O)(=O)c1ccccc1)OCc1ccc(Cl)c(Cl)c1 [Compound 6] | ++ (++ is 25,000−75,000) | ++ (++ is 25,000−75,000) | + (+ is <25,000)

More lines, now with the values ahead:

Row | Stimulation of the interaction between PYL3 and PP2C (binding signal) (His6-PYL3 / biotin-PP2C) | Stimulation of the interaction between PYR1 and PP2C (binding signal) (His6-PYR1 / biotin-PP2C) | Stimulation of the interaction between PYL2 and PP2C (binding signal) (His6-PYL2 / biotin-PP2C) | Structure (SMILES)
4 | +++ (+++ is >75,000) | +++ (+++ is >75,000) | – | O=S(=O)(NC[C@@H]1CCCO1)c1ccc(Br)c2ccccc12 [Compound 12]
5 | + (+ is <25,000) | + (+ is <25,000) | + (+ is <25,000) | Cc1ccc(C(=O)O)cc1NC(=S)NC(=O)c1ccccc1Cl [Compound 14]
6 | – | + (+ is <25,000) | – | CCCN(CCC)C(=O)[C@@H](CCC(=O)O)NS(=O)(=O)c1ccc(C)cc1 [Compound 13]
